How the values were obtained:
[1] = test system: PP2A; assay: PP2A immunoprecipitation phosphatase assay in SK-N-AS cells; format: cell-based, human; settings: 24 h; for PP2A activation compared with FTY720: 10 μM vs FTY720 5 μM, p ≤ 0.01; for PP2A activation (percent PP2A activity): 10 μM, control 100 ± 0%
Description: SK-N-AS cells (1 × 10^6) were treated with FTY720 (5 μM), 792 (10 μM), or 1154 (10 μM) for 24 h and lysed using HEPES (AC215001000, Thermo Fisher Scientific Inc.), MgCl2 (MX0045-4, EM Science, Gibbstown, NJ, USA), KCl (02-003-741, Thermo Fisher Scientific Inc.), PMSF (Sigma Aldrich), dithiothreitol (EC-601, National Diagnostics, Atlanta, GA, USA), and Igepal CA-630 ([…], Sigma Aldrich) for 20 min on ice. Cell lysates were centrifuged at 17,000 rpm for 30 min at 4 °C. The commercially available PP2A Immunoprecipitation Phosphatase Assay Kit (17-313, EMD Millipore) has been used by other investigators to directly measure PP2A activity and was utilized per manufacturer's protocol to evaluate the activity of PP2A following treatment and compared to untreated cells. Experiments were completed at least in triplicate, and data reported as mean fold change ± standard error of the mean (SEM).

[2] = Microsome (oxidative metabolism) stability, mouse; format: in vitro ADME; settings: for half-life at 1 µM: liver microsomes 0.5 mg/mL, NADPH, read-out: T1/2 Mouse; for microsomal CLint at 1 µM: liver microsomes, read-out: CL Mouse
Description: Microsome stability assays were performed by Bioduro, LLC. Briefly, 2.5 µL (100 µM in DMSO) of test compounds are added to 197.5 µL of human, rat, or mouse microsome preparation (0.633 mg/mL in phosphate buffer) and mixed gently at 37 °C. The reaction is started by adding 50 µL NADPH (5 mM in phosphate buffer) and mixing at 37 °C. The final reaction microsome concentration is 0.5 mg/mL. The reaction is sampled at 0, 5, 15, 30, and 60 min. Reaction aliquots are quenched by adding to 1:1 methanol–acetonitrile containing analytical standards and analyzed by liquid chromatography with tandem mass spectrometry (LC-MS/MS).

[3] = test system: SK-N-AS, SK-N-BE(2), SH-EP, WAC2 cells; assay: Modified Boyden chamber invasion assay; format: cell-based, human; settings: 24-h treatment, same doses as scratch assay; four cell lines
Description: Since the established neuroblastoma cell lines grow as adherent cells, migration in SK-N-AS, SK-N-BE(2), SH-EP, and WAC2 cells was examined using monolayer wound healing (scratch) assay. […] Once cells reached 80% confluence, a sterile 200 μL pipette tip was used to make a standard scratch in the cell layer. Photographs of the plates were obtained at 0, 12, 24, and 36 h. ImageJ MRI Wound Healing Tool (http://imagej.nih.gov/ij/ (accessed on 14 October 2019) quantified the open wound area, and data reported as fold change of the open area ± SEM. Invasion was evaluated with a modified Boyden chamber technique. The insert bottoms were coated with collagen type I (10 µg/mL, MP Biomedicals, Santa Ana, CA, USA). The insert tops were coated with a layer of Matrigel^TM (1 mg/mL, 50 μL, BD Biosciences). Cells were treated for 24 h with 792 (SK-N-AS 10 μM; SK-N-BE(2), SH-EP, WAC2 15 μM) or 1154 (SK-N-AS, SK-N-BE(2) 10 μM; SH-EP, WAC2 15 μM), plated (4 × 10^4 cells), and allowed to invade through the membrane for 24 h. Insert membranes were fixed using 4% paraformaldehyde, stained with 1% crystal violet for 15 min, photographed, and invasion quantified with ImageJ (http://imagej.nih.gov/ij/ (accessed on 10 September 2019)). Invasion data were reported as mean percent membrane occupied by cells ± SEM. Experiments were completed with at least three biologic replicates.

[4] = test system: MYCN; assay: Immunoblotting of MYCN in neuroblastoma cells; format: cell-based, human; settings: 24 h
Description: Following treatment, cells were lysed on ice using radioimmunoprecipitation (RIPA) buffer with phosphatase inhibitors (P5726, Sigma Aldrich), protease inhibitors (P8340, Sigma Aldrich), and phenylmethanesulfonylfluoride (PMSF, P7626, Sigma Aldrich) for 60 min. Cell lysates were centrifuged at 17,000 rpm for 30 min at 4 °C. Pierce™ BCA Protein Assay (Thermo Fisher Scientific, Inc.) determined protein concentration and proteins were separated by electrophoresis on sodium dodecyl sulfate polyacrylamide (SDS-PAGE) gels. Expected size of the targeted proteins was confirmed using molecular weight markers (Precision Plus Protein Kaleidoscope, Bio-Rad, Hercules, CA, USA). […] Immunoblots were developed with Luminata Classico or Crescendo Western horseradish peroxidase substrate (EMD Millipore, Burlington, MA, USA). Either anti-vinculin or anti-β-actin (as available from manufacturer) served as an internal loading control. We performed densitometry of Western blots using ImageJ software (Ver 1.49, http://imagej.nih.gov/ij (accessed on 9 February 2022).

[5] = test system: SK-N-AS cells; assay: CellTiter 96 proliferation, SK-N-AS; format: cell-based; settings: Homo sapiens, 24 h
Description: CellTiter 96® Aqueous One Solution Cell Proliferation assay (Promega, Madison, WI, USA) was used to examine proliferation, and alamarBlue® assay (Thermo Fisher Scientific, Inc.) was used to evaluate viability. Cells, concentrations ranging from 5 × 10^3 to 1.5 × 10^4, depending on cell type due to wide variation in growth characteristics between established cell lines and PDX cells, were plated in 96-well plates and treated with increasing doses of 792 or 1154 for 24 h. CellTiter 96® or alamarBlue® dye (10 µL) was added for proliferation and viability assays, respectively. A microplate reader (Epoch Microplate Spectrophotometer, BioTek Instruments, Winooski, VT) measured absorbance at 490 nm for CellTiter 96® and at 570 nm for alamarBlue®, using 600 nm as a reference. […] Experiments were completed with at least three biologic replicates, and data reported as fold change ± SEM.
Supplemental Figure S3: Novel PP2A activating compounds decrease d neuroblastoma proliferation and viability. SK-N-AS and SK-N-BE(2) cells (1.5 x 104) were plated in 96-well plates and treated with increasing doses of nine PP2A activating compounds for 24 […]
novel PP2A activators tested in (A) SK-N-AS and (B) SK-N-BE(2) cells. Similarly, PP2A […]
(D) SK-N-BE(2) cells. Data reported as mean fold change ± SEM, and experiments were repeated with at least three biologic replicates. […]

[6] = biological target: T1, PP2A (Homo sapiens, UniProt P30153+P67775); assay: PP2A immunoprecipitation phosphatase assay in SH-EP cells; format: cell-based; settings: 24 h, 10 μM in text (15 μM in Figure 2 legend), control 100 ± 0%
T1 construct: host or cells: SH-EP

[7] = SK-N-AS cells, increasing doses
[8] = SK-N-BE(2), SH-EP and WAC2 cells, 0, 10, 20 μM

T1 sequence (P67775 whole entry): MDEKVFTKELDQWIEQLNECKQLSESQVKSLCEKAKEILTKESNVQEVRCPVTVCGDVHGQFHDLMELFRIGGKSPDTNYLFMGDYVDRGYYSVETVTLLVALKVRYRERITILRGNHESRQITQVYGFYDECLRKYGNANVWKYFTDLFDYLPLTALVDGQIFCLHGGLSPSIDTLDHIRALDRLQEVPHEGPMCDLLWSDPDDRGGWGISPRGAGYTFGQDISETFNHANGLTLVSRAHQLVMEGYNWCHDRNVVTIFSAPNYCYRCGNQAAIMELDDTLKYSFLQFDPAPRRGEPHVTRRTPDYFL
T1 sequence (P30153 2-589 limits assumed): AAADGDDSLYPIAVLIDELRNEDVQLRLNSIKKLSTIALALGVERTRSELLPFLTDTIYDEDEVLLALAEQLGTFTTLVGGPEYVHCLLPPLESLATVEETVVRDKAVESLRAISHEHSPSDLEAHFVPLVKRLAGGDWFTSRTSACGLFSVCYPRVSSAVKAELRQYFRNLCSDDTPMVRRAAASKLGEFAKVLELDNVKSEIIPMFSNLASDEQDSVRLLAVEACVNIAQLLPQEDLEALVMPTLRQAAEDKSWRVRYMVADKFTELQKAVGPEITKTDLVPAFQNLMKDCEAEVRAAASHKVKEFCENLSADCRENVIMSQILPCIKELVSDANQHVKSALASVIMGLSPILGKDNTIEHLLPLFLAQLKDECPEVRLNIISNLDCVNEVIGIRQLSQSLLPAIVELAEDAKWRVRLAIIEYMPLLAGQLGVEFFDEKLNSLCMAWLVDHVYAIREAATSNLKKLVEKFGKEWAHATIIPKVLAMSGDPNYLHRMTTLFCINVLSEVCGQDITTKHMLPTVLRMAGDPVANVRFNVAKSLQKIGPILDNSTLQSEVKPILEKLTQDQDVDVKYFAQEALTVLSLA

SMILES | PP2A activation compared with FTY720 [1] | PP2A activation (percent PP2A activity) [1] [%] | half-life at 1 µM [2] [min] | microsomal CLint at 1 µM [2] [µL/min/mg] | Invasion [3] | MYCN protein expression [4, 7] | MYCN protein expression [4, 8] | IC50 [5] [µM] | PP2A activation (percent PP2A activity) [6] [%]
O=S(=O)(N[C@H]1COC[C@@H](n2c3ccc(Cl)cc3c3cc(Cl)ccc32)[C@@H]1O)c1ccc(OC(F)(F)F)cc1 [ATUX-792] | significantly more than FTY720 | 117.5 ± 5.6 | > 256 | < 5 | significantly decreased | increase in MYCN expression | decreased expression of MYCN | 23.9 | 117.3 ± 7.2
O=S(=O)(NC1CCCC(N2c3ccccc3CCc3ccccc32)C1O)c1ccc(OC(F)(F)F)cc1 (stereo not drawn) [DBK-1154] | significantly more than FTY720 | 134.8 ± 18.4 | 6 | 234 | significantly decreased | increase in MYCN expression | decreased expression of MYCN | 22.4 | 138.0 ± 16.5

From PMC9026148, “Pre-Clinical Study Evaluating Novel Protein Phosphatase 2A Activators as Therapeutics for Neuroblastoma” (Cancers, 2022)
